Measurements from patent publication US20240417410A1, “TRICYCLIC COMPOUNDS FOR THE TREATMENT OF CANCER” (Hoffmann-La Roche Inc., priority 2023, published 2024).
pIC50: −log10 of the molar value. Like-named read-outs stand apart in the source and are kept apart here.

Assays:
[1] = target: KRAS G12V-BRAF complex (Homo sapiens (Human), UniProt P01116+P62937, G12V); assay: KRAS G12V-BRAF with CYPA interaction assay (TR-FRET, selectivity test, Example 132); assay type: biochemical
Experimental: (§1) In this example, TR-FRET was used to measure the compound or compound-CYPA dependent disruption of the KRAS G12V-BRAF complex to assess inhibition efficacy. The IC50 ratio between WT KRAS/HRAS/NRAS and KRAS G12V mutant was calculated as selective index, which indicated tolerability and safety profile. Disruption of WT KRAS/HRAS/NRAS-BRAF complex by compounds was detected respectively. In assay buffer containing 25 mM HEPES (PH-7.4,4-(2-hydroxyethyl)-1-piperazineethanesulfonic acid, Thermo, 15630080), 0.002% Tween20, 0.1% BSA, 100 mM NaCl, 5 mM MgCl2, 10 μM GMPPNP (Guanosine 5′-[β,γ-imido]triphosphate trisodium salt hydrate, Sigma, G0635), tagless CYPA and GMPPNP loaded 6His-RAS proteins, and GST-BRAF^RBD were mixed in a well of a 384-well assay plate at final concentrations of 50 nM, 6.25 nM and 1 nM, respectively. Compound was present in plate wells as a 16-point 3-fold dilution series starting at a final concentration of 10 μM and incubated for 3 hours. A mixture of MAb Anti-6His-XL665 (Cisbio, 61HISXLB) and Mab anti-GST-TB cryptate (Cisbio, 61GSTTLB) was then added at a final concentration of 6.67 nM and 0.21 nM, respectively, and the plate was incubated for an additional 1.5 hours. TR-FRET signal was read on a PHERstar FSX microplate reader (Ex320 nm, Em 665/615 nm). Compounds that facilitate disruption of the RAS-BRAF complex were identified as those eliciting a decrease in the TR-FRET ratio relative to DMSO control wells.

[2] = Single dose pharmacokinetics (PK) study in female BALB/c mice; assay type: in vivo, mouse
Experimental: The purpose of this study was to determine the pharmacokinetics of selected compounds following single intravenous bolus or oral gavage administration in female BALB/c mice. Briefly, two groups of female BALB/c mice (available from Shanghai Lingchang Biotechnology Co., Ltd) (N=3/group) were treated with a single dose of compound intravenously at 3 mg/kg (IV) or orally at 30 mg/kg (PO). Blood samples were collected at 5 min (only for IV), […], 30 min, 1 h, 2 h, 4 h, 7 h and 24 h post-dose. Blood samples were placed on ice until centrifugation to obtain plasma samples. The concentration of compound in plasma samples was determined using LC-MS/MS method. The pharmacokinetic parameters were calculated by non-compartmental analysis.

[3] = target: WT NRAS-BRAF complex (Homo sapiens (Human), UniProt P01111+P62937); assay: WT NRAS-BRAF with CYPA interaction assay (TR-FRET); assay type: biochemical; conditions: WT NRAS
Experimental: as §1

[4] = target: WT HRAS-BRAF complex (Homo sapiens (Human), UniProt P01112+P62937); assay: WT HRAS-BRAF with CYPA interaction assay (TR-FRET); assay type: biochemical; conditions: WT HRAS
Experimental: as §1

[5] = target: WT KRAS-BRAF complex (Homo sapiens (Human), UniProt P01116+P62937); assay: WT KRAS-BRAF with CYPA interaction assay (TR-FRET); assay type: biochemical; conditions: WT KRAS
Experimental: as §1

[6] = system: SNU-387; assay: Cell proliferation, CTG 3D, 7 d; assay type: cell-based; conditions: Homo sapiens
How it was run: (§2)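 Luminescent ATP signal (CellTiter-Glo 3D) measured spheroid viability after a 7-day compound exposure. Dosing used nine 3-fold dilutions at 0.2% DMSO in ultra-low-adhesion plates. Inhibition was normalized to max and min controls and fitted for relative IC50.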

[7] = system: PL-21; assay: Cell proliferation, CTG 3D, 7 d; assay type: cell-based; conditions: Homo sapiens
How it was run: as §2

[8] = system: SW 948; assay: Cell proliferation, CTG 3D, 7 d; assay type: cell-based; conditions: Homo sapiens, SW948
How it was run: as §2

[9] = system: NCI-H2030; assay: Cell proliferation, CTG 3D, 7 d; assay type: cell-based; conditions: Homo sapiens; NCI-H2030, KRAS (G12C)
How it was run: as §2

[10] = system: LS513; assay: Cell proliferation, CTG 3D, 7 d; assay type: cell-based; conditions: Homo sapiens, LS-513; LS513, KRAS (G12D)
How it was run: as §2

[11] = system: RCM-1; assay: Cell proliferation, CTG 3D, 7 d; assay type: cell-based; conditions: Homo sapiens; RCM-1, KRAS (G12V)
How it was run: as §2

[12] = system: Panc 02.03; assay: Cell proliferation, CTG 3D, 7 d; assay type: cell-based; conditions: Homo sapiens; Panc 02.03, KRAS (G12D)
How it was run: as §2

[13] = system: NCI-H838; assay: Cell proliferation, CTG 3D, 7 d; assay type: cell-based; conditions: Homo sapiens; NCI-H838, KRAS (WT ampl)
How it was run: as §2

[14] = system: RPMI8226; assay: Cell proliferation, CTG 3D, 7 d; assay type: cell-based; conditions: Homo sapiens, RPMI-8226
How it was run: as §2

[15] = 30 mg/kg, po, female BALB/c mice

Sequence of WT KRAS-BRAF complex (P01116-2 whole entry, looked up): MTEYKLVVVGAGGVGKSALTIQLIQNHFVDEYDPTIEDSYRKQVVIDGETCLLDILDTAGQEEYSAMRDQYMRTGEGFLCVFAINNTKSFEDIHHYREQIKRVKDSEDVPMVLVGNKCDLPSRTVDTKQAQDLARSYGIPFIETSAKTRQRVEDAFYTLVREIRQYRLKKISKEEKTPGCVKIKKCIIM
Sequence of WT KRAS-BRAF complex (P62937 whole entry, looked up): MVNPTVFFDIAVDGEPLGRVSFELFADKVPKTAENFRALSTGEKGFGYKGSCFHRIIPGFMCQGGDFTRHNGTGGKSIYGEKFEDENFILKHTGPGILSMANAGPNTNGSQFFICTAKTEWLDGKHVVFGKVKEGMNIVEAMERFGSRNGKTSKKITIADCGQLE
Sequence of KRAS G12V-BRAF complex (P01116-2 other isoform, or with tags, fused parts or gaps G12V): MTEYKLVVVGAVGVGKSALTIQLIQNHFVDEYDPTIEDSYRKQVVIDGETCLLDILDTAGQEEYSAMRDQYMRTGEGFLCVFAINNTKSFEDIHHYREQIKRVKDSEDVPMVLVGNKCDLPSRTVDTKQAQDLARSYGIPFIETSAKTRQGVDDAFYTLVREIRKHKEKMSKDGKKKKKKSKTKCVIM
Sequence of KRAS G12V-BRAF complex (P62937 whole entry): as the sequence (P62937 whole entry, looked up) above
Sequence of WT HRAS-BRAF complex (P01112 whole entry, looked up): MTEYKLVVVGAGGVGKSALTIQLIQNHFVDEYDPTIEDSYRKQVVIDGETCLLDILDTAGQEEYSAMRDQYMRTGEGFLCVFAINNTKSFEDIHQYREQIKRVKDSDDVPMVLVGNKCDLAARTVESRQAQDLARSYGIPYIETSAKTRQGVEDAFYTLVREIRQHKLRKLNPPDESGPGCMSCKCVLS
Sequence of WT HRAS-BRAF complex (P62937 whole entry, looked up): as the sequence (P62937 whole entry, looked up) above
Sequence of WT NRAS-BRAF complex (P01111 whole entry, looked up): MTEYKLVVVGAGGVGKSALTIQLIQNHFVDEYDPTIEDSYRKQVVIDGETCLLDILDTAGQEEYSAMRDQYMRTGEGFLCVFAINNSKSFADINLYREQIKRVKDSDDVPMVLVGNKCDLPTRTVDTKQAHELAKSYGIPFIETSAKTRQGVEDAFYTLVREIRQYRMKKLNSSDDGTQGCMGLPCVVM
Sequence of WT NRAS-BRAF complex (P62937 whole entry, looked up): as the sequence (P62937 whole entry, looked up) above

Row | SMILES | pIC50 [1] | pIC50 [3] | pIC50 [4] | pIC50 [5] | pIC50 [9] | pIC50 [10] | pIC50 [11] | pIC50 [12] | pIC50 [13] | further results
1 | CO[C@@H](C)c1ncc(N2CCN(C)CC2)cc1-c1c2c3cc(cc4c3n1CCC4)-c1csc(n1)C[C@H](NC(=O)[C@H]1[C@H](C)[C@@H]1C)C(=O)N1CCC[C@H](N1)C(=O)OCC(C)(C)C2 (atropisomer, axis not shown; (M)) [Example 24, (1r,2R,3S)-N-[(7S,13S)-(20M)-20-[2-[(1S)-1-methoxyethyl]-5-(4-methylpiperazin-1-yl)-3-pyridyl]-17,17-dimethyl-8,14-dioxo-15-oxa-4-thia-9,21,30,31-tetrazahexacyclo[23.3.1.1^2,5.1^9,13.0^19,27.0^21,26]hentriaconta-1 (28),2,5 (31), 19,25 (29),26-hexaen-7-yl]-2,3-dimethyl-cyclopropanecarboxamide] | 8.15 | 7.46 | 7.42 | 7.49 | 9.47 | 9.17 | 8.66 | 8.49 | 7.00 | CL ([2]; 3 mg/kg, iv, female BALB/c mice): 5.3 mL/min/kg; AUC0-last [2, 15]: 57240 ng·h/mL; Cmax [2, 15]: 10498 ng/mL; fold increase in AUC0-last compared with compound A122 ([2]; 30 mg/kg, po, mouse): 6 fold; fold increase in AUC0-last compared with compound A252 ([2]; 30 mg/kg, po, mouse): 4 fold; fold increase in Cmax compared with compound A122 ([2]; 30 mg/kg, po, mouse): ~4 fold; fold increase in Cmax compared with compound A252 ([2]; 30 mg/kg, po, mouse): 4.3 fold; pIC50 ([6]; SNU-387, NRAS (p.Q61K), read-out: IC50): 9.37; pIC50 ([7]; PL-21, KRAS (A146V), read-out: IC50): 9.00; pIC50 ([8]; SW 948, KRAS (Q61L), read-out: IC50): 8.54; pIC50 ([14]; RPMI8226, KRAS (G12A), read-out: IC50): 9.42
2 | CCn1c(-c2cc(N3CCN(C)CC3)cnc2[C@H](C)OC)c2c3cc(ccc31)-c1csc(n1)C[C@H](NC(=O)[C@H]1C[C@@H]1C)C(=O)N1CCC[C@H](N1)C(=O)OCC(C)(C)O2 [Example A122, reference compound] | 8.10 | 8.00 | 8.00 | 7.80 | 9.25 | 9.33 | 8.19 | 8.28 | 7.00 | clearance ([2]; female, BALB/c, mouse, plasma, iv, 3 mg/kg, female BALB/c mice): 33.9 mL/min/kg; AUC(0-t) ([2]; female, BALB/c, mouse, plasma, po, 30 mg/kg, female BALB/c mice): 9760 ng·h/mL; Cmax ([2]; female, BALB/c, mouse, plasma, po, 30 mg/kg, po, female BALB/c mice, read-out: Cmax): 2530 ng/mL; pIC50 ([6]; SNU-387): 8.96; pIC50 ([7]; PL-21): 8.68; pIC50 [8]: 8.07; pIC50 [14]: 9.28
